Results: article PMC6394990, “Detailed characterization of the solution kinetics and thermodynamics of biotin, biocytin and HABA binding to avidin and streptavidin” (PLoS ONE, 2019)
Like-named read-outs stand apart in the source and are kept apart here.

Legend:
avidin (AV) [1] = target: T1, avidin (AV) (Gallus gallus, UniProt P02701); details: pH 8; read-out: KD AV-HABA; cited from earlier work
T1 construct: purchased Calbiochem (La Jolla, CA)

avidin (AV) [2] = target: T1, avidin (AV); experiment: HABA association reaction for AV (stopped-flow absorbance at 500 nm); format: binding; details: 23°C
Method: (§1) All of the following protein concentrations are presented on a binding site basis, thus in the case of the HABA association reactions for AV were measured at 23.0 ± 0.1°C with a concentration of 87 μM HABA and 7.7 μM AV. The AV-HABA relaxation reactions were conducted with a preformed AV-HABA complex made up of 200 μM HABA and 10 μM AV, flowed against varying amounts of B7 from 100 μM up to 4000 μM for a [HABA]/[B7] ratio that ranged from 0.05 to 2.
These calculations have been described elsewhere and were acquired for the AB1 complexes. The HABA association reaction for AV was carried out under pseudo-first order conditions on a micro absorbance SF instrument equipped with a xenon arc lamp (described above) and a monochromator (model 82–410, Jarrel-Ash, Waltham, Mass.) set at 500 nm.

avidin (AV) [3] = target: T1, avidin (AV); experiment: Relaxation kinetics of unlabeled biotin reacting with the AV-HABA complex; format: binding; details: pH 8
Method: as §1
The relaxation experiments were prepared at concentrations in which HABA occupies all sites (AV-HABA4). Biotin replaces HABA relative to the koff of the dye as shown for the first step (Eq 1) and then repeated for all sites. Having greater affinity, B7 occupies all sites at the end of the reaction and the measured kon is related to the affinities of the ligand bound protein.
The reaction is monitored by the HABA absorbance changes at 500 nm as it is replaced by unlabeled B7; yielding the relaxation constant of the reaction (Relaxation, Eq 2) which contains information of the B7 association rate constant of the open binding site, k1AV−HABA3 to form a full saturated complex (AV-HABA4) and the dissociation rate of that full complex, k−1AV−HABA4 , to yield a complex with three HABA molecules (AV-HABA3). In the subsequent steps, B7 replaces HABA as the ligand but the release of HABA creates an unoccupied site that remains in the same state. In summary, the experiment was designed to acquire the pseudo-first order association rate constant of B7 binding ( konB ) to the solely free binding site in a complex occupied by three HABA molecules (AV-HABA3).
The reciprocal of the relaxation constant (1/Relaxation) is plotted vs. the [HABA]/[B] concentration ratio (Eq 3) allowing to calculate: k−1AV−HABA4 and k1AV−HABA3 by solving for the intercept ( 1/k−1AV−HABA4 ) and the respective slope: m=k1AV−HABA3/(k−1AV−HABA4∙konB) . The exponential decays were analyzed by the method of Foss. There was no departure from simple first order decay in the relaxation, justifying the use of the following model and equations.

T1 sequence (P02701 25-152): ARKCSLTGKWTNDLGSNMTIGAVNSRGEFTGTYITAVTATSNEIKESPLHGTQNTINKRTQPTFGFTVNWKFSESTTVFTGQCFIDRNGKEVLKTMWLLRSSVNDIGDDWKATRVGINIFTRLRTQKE

O=C(O)c1ccccc1N=Nc1ccc(O)cc1 [HABA, 2-(4’-hydroxyazobenzene)-benzoic acid]
Kd (avidin (AV) [1]): 12 µM
k1 AV−HABA3, HABA association rate for the final site (avidin (AV) [2]): 5.1 ± 0.1 × 10^5 M^-1s^-1
Kd (avidin (AV) [3]; from k−1 and k1): 12.2 µM
k−1 AV−HABA4, HABA dissociation rate constant of the AV-HABA4 complex (avidin (AV) [3]; 23°C): 6.23 ± 0.11 s⁻¹
